Data set [1] can be described thus: Water solubility at 25° C. of zoledronic acid-HPβCD complexes and zoledronic acid monohydrate. The data set is classed as physicochemical. From the text:
Solubility data of Examples 1-5 and Zoledronic Acid Monohydrate

The conditions of data set [2]: cited from earlier work.
The conditions of data set [3]: cited from earlier work. This is another data set of the same source.

In general, solubility refers to the concentration that dissolves in the medium under given conditions. As to `O=P(O)(O)C(O)(Cn1ccnc1)P(=O)(O)O` [Zoledronic acid monohydrate, zoledronic acid monohydrate], in data set [1], the solubility was under 7000 µg/mL.

With hydroxypropyl-β-cyclodextrin [HPβCD], the solubility in water entry in data set [2] (room temperature) is “greater than 500 mg/ml”. Moreover, the “adverse effects in human studies” value in data set [3] is listed as “no adverse effects are observed”.

With `O=P(O)(O)C(O)(Cn1ccnc1)P(=O)(O)O` [zoledronic acid], in data set [2], the “water solubility (in words)” value is “sparingly water-soluble”.

The values above are taken from patent US20090023683A1, “COMPLEXES COMPRISING ZOLEDRONIC ACID AND CYCLODEXTRINS” (priority 2007, published 2009).
